The values below come from patent publication US20120058150A1, “Methods for Delivering Compositions by Electrospraying a Medical Device” (COLORADO STATE UNIVERSITY RESEARCH FOUNDATION, priority 2010, published 2012).

This series is described as follows: gentamicin sulfate loading efficiency of E-sprayed DOPS coatings. The following applies: 14 kV E-spray voltage compared with the other voltages (FIG. 4). Format: physicochemical.

Regarding gentamicin sulfate, the “gentamicin sulfate loading efficiencies” value is given as “significantly greater”.
